The test system of test [1] is PASMCs. In words: KCl-induced Ca2+ responses in PASMCs. Format: cell-based, rat. How it is done:
Intrapulmonary arteries (200-600 μm o.d.) were isolated from male Wistar rats (250-350 g) and cleaned of connective tissue. After the lumen was gently rubbed with a cotton swab to remove the endothelial cells, the arteries were allowed to recover for 30 minutes in cold (4° C.) HBSS containing (in mM): 130 NaCl, 5 KCl, 1.2 MgCl2, 1.5 CaCl2, 10 N-[2-hydroxyethyl]piperazine-N′-[2-ethanesulfonic acid] (HEPES) and 10 glucose, with pH adjusted to 7.2 with 5 M NaOH, followed by 20 minutes in reduced-Ca^2+ (20 μM CaCl2) HBSS at room temperature. […] Following digestion, single smooth muscle cells were dispersed by gentle trituration with a wide-bore transfer pipette in Ca^2+-free HBSS and the cell suspension was placed on 25 mm glass cover slips. PASMCs were transiently cultured in Ham's-F-12 media supplemented with 0.5% fetal bovine serum and 1% penicillin/streptomycin for 24-48 hrs. before study.
Acute hypoxia increases intracellular [Ca^2+] in pulmonary arterial smooth muscle by enhancing capacitative Ca^2+ entry. […] Ratiometric measurement of fluorescence from the dye was performed on a workstation (Intracellular Imaging Inc, Cincinnati, Ohio) consisting of a Nikon TSE 100 Ellipse inverted microscope with epi-fluorescence attachments. The light beam from a xenon arc lamp was filtered at 340 and 380 nm, and focused onto the PASMCS under examination via a 20× fluorescence objective (Super Fluor 20, Nikon). Light emitted from the cell at 510 nm was returned through the objective and detected by a cooled CCD imaging camera. An electronic shutter (Sutter Instruments) was used to minimize photobleaching of dye. Protocols were executed and data collected on-line with InCyte software (Intracellular Imaging Inc). [Ca^2+]i was estimated from in vitro calibration solutions.

Test [2] deals with PASMCs. In words: Changes in membrane potential (Em) in PASMCs, DiBAC4(3) fluorescence. Format: cell-based, rat. The conditions noted are these: 100 μM. The procedure:
The method for obtaining single PASMCs has been described previously in Shimoda L. A., et al., Am J Physiol 274: 842-853 (1998), which is hereby incorporated by reference in its entirety. Intrapulmonary arteries (200-600 μm o.d.) were isolated from male Wistar rats (250-350 g) and cleaned of connective tissue. After the lumen was gently rubbed with a cotton swab to remove the endothelial cells, the arteries were allowed to recover for 30 minutes in cold (4° C.) HBSS containing (in mM): 130 NaCl, 5 KCl, 1.2 MgCl2, 1.5 CaCl2, 10 N-[2-hydroxyethyl]piperazine-N′-[2-ethanesulfonic acid] (HEPES) and 10 glucose, with pH adjusted to 7.2 with 5 M NaOH, followed by 20 minutes in reduced-Ca^2+ (20 μM CaCl2) HBSS at room temperature. The tissue was enzymatically digested in reduced-Ca^2+ HBSS containing collagenase (type I; 1750 U/ml), papain (9.5 U/ml), bovine serum albumin (2 mg/ml) and dithiothreitol (1 mM) at 37° C. for 20 minutes. Following digestion, single smooth muscle cells were dispersed by gentle trituration with a wide-bore transfer pipette in Ca^2+-free HBSS and the cell suspension was placed on 25 mm glass cover slips. PASMCs were transiently cultured in Ham's-F-12 media supplemented with 0.5% fetal bovine serum and 1% penicillin/streptomycin for 24-48 hrs. before study.
Changes in membrane potential were measured using the fluorescence dye, DiBAC4(3), which was excited at 490 nm and detected at 510 nm. Cells were loaded by continuous perfusion with Kreb's solution containing 500 nM DiBAC4(3) and were perfused for at least 15 minutes before beginning measurements to insure stable uptake of dye. Baseline DiBAC4(3) fluorescence was monitored for 5 minutes with control Kreb's, followed by 10 minutes with Kreb's in the presence or absence of AZ (100 μM). At the end of this period, cells were challenged with KCl (60 mM) or endothelin-1 (ET-1) (10^−8 M). Since DiBAC4(3) is a single wavelength dye, any change in the concentration of the dye in the perfusion medium (i.e., differing concentrations between perfusion reservoirs) could result in a change in fluorescence that is not due to a change in membrane potential. To minimize the possibility of this type of error, all experiments were performed using inflow from a single reservoir into which AZ, KCl or ET-1 were dissolved directly.
AZ has recently been proposed to alter the activation of Ca^2+-activated K^+ channels, causing hyperpolarization. See Pickkers P., et al., Br J Pharmacol 132: 443-450 (2001); Tricarico D., et al., Ann Neurol 48: 304-312 (2000); and Tricarico D., et al., Faseb J 18: 760-761 (2004), which are hereby incorporated by reference in their entirety. Since depolarization is believed to contribute to the hypoxia-induced increase in [Ca^2+]i, AZ-induced hyperpolarization could prevent activation of voltage-gated Ca^2+ channels and an increase in [Ca^2+]i in response to hypoxia. In order to test this possibility, the Em-sensitive fluorescent dye, DiBAC4(3) was used. […] Baseline fluorescence was relatively stable over time, decreasing by 4.11±0.4% over 10 minutes (n=90 cells).

The subject of a further test is humans. The settings on record: 250 mg tid; Balanos et al. abstract 2006; cited from earlier work.
Test [3] concerns Beagle dogs. The conditions noted are these: iv 10 mg·kg^−1·h^−1; Höhne 2004; cited from earlier work.
Test [4] has as its system Beagle dogs. The test is described as follows: Dog study: arterial blood gases, ventilation and acid-base status in normoxia and hypoxia. The format is in vivo. The settings on record: po 5 mg/kg 12 and 1 hr before; hypoxia 3rd h.

Molecules are shown by their SMILES. “Also recorded” adds a separate entry of the source.

As for `CC(=O)Nc1nnc(S(N)(=O)=O)s1` [AZ, acetazolamide], the “effect on KCl-induced increase in [Ca^2+]i” value in the test with PASMCs [1] (100 μM) is given as “no effect; also recorded: not altered”. In addition, the “[Ca^2+]i after KCl” value in the test on PASMCs [1] (KCl 60 mM, pretreatment 100 μM) amounted to 292.6 ± 21.2 nM. The “mean change in [Ca^2+]i in response to KCl” value with PASMCs [1] (KCl 60 mM, pretreatment 100 μM, control 123.4±20.6 nM) is 134.7 ± 18.2 nM. In the test on PASMCs [1] (pretreatment 100 μM), the “[Ca^2+]i before KCl” value turned out to be 157.8 ± 11.9 nM. Further, in the test on PASMCs [2], the “change in basal DiBAC4(3) fluorescence (basal Em)” value is −2.86±4.5% and the “effect on basal Em” value is listed as “no significant effect”. Further, the “increase in DiBAC4(3) fluorescence induced by ET-1 in presence of compound” value in the test with PASMCs [2] (ET-1) was 66.0±10.4%. The “increase in DiBAC4(3) fluorescence induced by KCl in presence of compound” value in the test with PASMCs [2] (KCl) is on record as 53.13±14.8%. For the same molecule, in the test with humans, the “reduction of HPV in humans” value is on record as 50%. Moreover, the “effect on HPV in conscious dogs” value in the test on Beagle dogs [3] was “totally abolished”. The “HCO3a, arterial actual bicarbonate concentration” value with Beagle dogs [4] is reported as 16.9 ± 0.5 mM.
